From PubChem BioAssay (NCI)
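Five concentrations, 48 hours, 96-well plates. GI50 is the concentration that inhibits growth by half. TGI: total growth inhibition.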

Legend:
Test in all cases: NCI-60 cell line screen, 48 h
CCRF-CEM leukemia = system: CCRF-CEM leukemia
HCT-15 colon = system: HCT-15 colon
LOX IMVI melanoma = system: LOX IMVI melanoma
MALME-3M melanoma = system: MALME-3M melanoma
MOLT-4 leukemia = system: MOLT-4 leukemia
NCI-H522 lung = system: NCI-H522 lung
OVCAR-4 ovarian = system: OVCAR-4 ovarian
SF-539 CNS = system: SF-539 CNS
SK-OV-3 ovarian = system: SK-OV-3 ovarian
SNB-75 CNS = system: SNB-75 CNS
UO-31 renal = system: UO-31 renal
DU-145 prostate = system: DU-145 prostate
MCF7 breast = system: MCF7 breast
PC-3 prostate = system: PC-3 prostate

## COC(=O)C(=O)Cc1nc2ccccc2o1
CCRF-CEM leukemia
  TGI: > 100 µM
HCT-15 colon
  TGI: > 100 µM
LOX IMVI melanoma
  TGI: > 100 µM
MALME-3M melanoma
  TGI: > 100 µM
MOLT-4 leukemia
  TGI: > 100 µM
NCI-H522 lung
  TGI: > 100 µM
OVCAR-4 ovarian
  TGI: > 100 µM
SF-539 CNS
  TGI: > 100 µM
SK-OV-3 ovarian
  TGI: > 100 µM
SNB-75 CNS
  TGI: > 100 µM
UO-31 renal
  TGI: > 100 µM

## O=c1[nH]nc(-c2ccccc2)n1O
CCRF-CEM leukemia
  TGI: > 100 µM
DU-145 prostate
  TGI: > 100 µM
HCT-15 colon
  TGI: > 100 µM
LOX IMVI melanoma
  TGI: > 100 µM
MALME-3M melanoma
  TGI: > 100 µM
MCF7 breast
  TGI: > 100 µM
MOLT-4 leukemia
  TGI: > 100 µM
NCI-H522 lung
  TGI: > 100 µM
OVCAR-4 ovarian
  TGI: > 100 µM
PC-3 prostate
  TGI: > 100 µM
SF-539 CNS
  TGI: > 100 µM
SK-OV-3 ovarian
  TGI: > 100 µM
UO-31 renal
  TGI: > 100 µM

## COc1cccc(C(=O)C#Cc2cnc(OC)nc2OC)c1
DU-145 prostate
  TGI: 12.4 µM
HCT-15 colon
  TGI: 0.516 µM
LOX IMVI melanoma
  TGI: 0.25 µM
MALME-3M melanoma
  TGI: 3.23 µM
MCF7 breast
  TGI: 1.28 µM
MOLT-4 leukemia
  TGI: 0.7 µM
NCI-H522 lung
  TGI: 0.762 µM
OVCAR-4 ovarian
  TGI: 6.61 µM
PC-3 prostate
  TGI: 2.88 µM
SK-OV-3 ovarian
  TGI: 44.9 µM
SNB-75 CNS
  TGI: 5.45 µM
UO-31 renal
  TGI: 2.67 µM

## OC(c1cccnc1Cl)c1nc2ccccc2c2ccnc(Cl)c12 (configuration not stated)
DU-145 prostate
  TGI: > 100 µM
HCT-15 colon
  TGI: > 100 µM
LOX IMVI melanoma
  TGI: > 100 µM
MALME-3M melanoma
  TGI: 78.2 µM
MCF7 breast
  TGI: > 100 µM
MOLT-4 leukemia
  TGI: > 100 µM
NCI-H522 lung
  TGI: 5.92 µM
OVCAR-4 ovarian
  TGI: > 100 µM
PC-3 prostate
  TGI: 69.1 µM
SF-539 CNS
  TGI: 12.4 µM
SK-OV-3 ovarian
  TGI: 63.4 µM
SNB-75 CNS
  TGI: > 100 µM
UO-31 renal
  TGI: > 100 µM

## CCN(CCN(CC)C(=O)Nc1ccccc1)C(=O)Nc1ccccc1
CCRF-CEM leukemia
  TGI: > 100 µM
DU-145 prostate
  TGI: > 100 µM
HCT-15 colon
  TGI: > 100 µM
LOX IMVI melanoma
  TGI: > 100 µM
MALME-3M melanoma
  TGI: > 100 µM
MCF7 breast
  TGI: > 100 µM
MOLT-4 leukemia
  TGI: > 100 µM
NCI-H522 lung
  TGI: > 100 µM
PC-3 prostate
  TGI: > 100 µM
SK-OV-3 ovarian
  TGI: > 100 µM
SNB-75 CNS
  TGI: > 100 µM
UO-31 renal
  TGI: > 100 µM

## O=C1CCCC/C1=C\c1ccc(Cl)c(Cl)c1
CCRF-CEM leukemia
  TGI: 58.7 µM
HCT-15 colon
  TGI: 39.3 µM
LOX IMVI melanoma
  TGI: 34.7 µM
MOLT-4 leukemia
  TGI: 43.8 µM
OVCAR-4 ovarian
  TGI: 41 µM
SF-539 CNS
  TGI: 32.5 µM
SK-OV-3 ovarian
  TGI: > 100 µM
SNB-75 CNS
  TGI: 46.8 µM
UO-31 renal
  TGI: 34 µM

## Cn1c(=O)n2n(c1=O)C(C)(C13CC4CC(CC(C4)C1)C3)C13CC4CC(CC1C4)CC23 (configuration not stated)
CCRF-CEM leukemia
  TGI: > 100 µM
DU-145 prostate
  TGI: > 100 µM
HCT-15 colon
  TGI: > 100 µM
MCF7 breast
  TGI: > 100 µM
MOLT-4 leukemia
  TGI: > 100 µM
PC-3 prostate
  TGI: > 100 µM
SF-539 CNS
  TGI: > 100 µM
SK-OV-3 ovarian
  TGI: > 100 µM
SNB-75 CNS
  TGI: > 100 µM
UO-31 renal
  TGI: > 100 µM

## O=C1c2ccccc2N2OC3(N4CCCC4)CCCCC3C12c1ccccc1 (configuration not stated)
CCRF-CEM leukemia
  TGI: 47.5 µM
HCT-15 colon
  TGI: > 100 µM
MALME-3M melanoma
  TGI: 38.7 µM
MOLT-4 leukemia
  TGI: > 100 µM
NCI-H522 lung
  TGI: 29.1 µM
OVCAR-4 ovarian
  TGI: 28.1 µM
SF-539 CNS
  TGI: 80.5 µM
SK-OV-3 ovarian
  TGI: > 100 µM
SNB-75 CNS
  TGI: > 100 µM
UO-31 renal
  TGI: > 100 µM

## CCC1C(c2ccccc2O)c2cc3c(cc2OC1N1CCOCC1)OCO3 (configuration not stated)
CCRF-CEM leukemia
  TGI: 32.7 µM
DU-145 prostate
  TGI: 28 µM
HCT-15 colon
  TGI: 21.4 µM
LOX IMVI melanoma
  TGI: 30.2 µM
MALME-3M melanoma
  TGI: 26 µM
MCF7 breast
  TGI: 28.2 µM
MOLT-4 leukemia
  TGI: 27 µM
NCI-H522 lung
  TGI: 28 µM
PC-3 prostate
  TGI: 26 µM
SF-539 CNS
  TGI: 30.7 µM
SK-OV-3 ovarian
  TGI: 39.6 µM
SNB-75 CNS
  TGI: 22.7 µM
UO-31 renal
  TGI: 27 µM

## CN1CCN(c2ccc3c(c2)NCC(=O)N3)CC1
CCRF-CEM leukemia
  TGI: > 100 µM
DU-145 prostate
  TGI: > 100 µM
HCT-15 colon
  TGI: > 100 µM
LOX IMVI melanoma
  TGI: > 100 µM
MALME-3M melanoma
  TGI: > 100 µM
MOLT-4 leukemia
  TGI: > 100 µM
NCI-H522 lung
  TGI: > 100 µM
OVCAR-4 ovarian
  TGI: > 100 µM
PC-3 prostate
  TGI: > 100 µM
SK-OV-3 ovarian
  TGI: > 100 µM
SNB-75 CNS
  TGI: > 100 µM
UO-31 renal
  TGI: > 100 µM

## O=C1N[C@@H]2C(=C[C@H](O)[C@@H](O)[C@H]2O)c2cc3c(c(O)c21)OCO3
CCRF-CEM leukemia
  TGI: 0.51 µM
HCT-15 colon
  TGI: 8.16 µM
LOX IMVI melanoma
  TGI: 0.065 µM
MALME-3M melanoma
  TGI: 0.0535 µM
MOLT-4 leukemia
  TGI: 0.296 µM
OVCAR-4 ovarian
  TGI: 0.537 µM
SF-539 CNS
  TGI: 0.0486 µM
SK-OV-3 ovarian
  TGI: 0.246 µM
SNB-75 CNS
  TGI: 0.0813 µM
UO-31 renal
  TGI: 0.0955 µM

## CN1CCN(P2(=S)Oc3ccc4ccccc4c3-c3c(ccc4ccccc34)O2)CC1
CCRF-CEM leukemia
  TGI: > 100 µM
HCT-15 colon
  TGI: > 100 µM
LOX IMVI melanoma
  TGI: 39.6 µM
MALME-3M melanoma
  TGI: 50.8 µM
MCF7 breast
  TGI: > 81.2 µM
MOLT-4 leukemia
  TGI: 46.2 µM
NCI-H522 lung
  TGI: 64 µM
OVCAR-4 ovarian
  TGI: > 100 µM
SF-539 CNS
  TGI: 42.6 µM
SK-OV-3 ovarian
  TGI: > 100 µM
SNB-75 CNS
  TGI: > 100 µM
UO-31 renal
  TGI: 48 µM

## COc1cc(O)c2c(=O)c(OC)c(-c3ccc(OC)c(OC)c3)oc2c1
CCRF-CEM leukemia
  TGI: > 100 µM
DU-145 prostate
  GI50: > 100 µM
  TGI: > 100 µM
HCT-15 colon
  TGI: > 100 µM
LOX IMVI melanoma
  GI50: > 100 µM
  TGI: > 100 µM
MALME-3M melanoma
  GI50: > 100 µM
  TGI: > 100 µM
MCF7 breast
  GI50: 45.8 µM
  TGI: > 100 µM
NCI-H522 lung
  TGI: 15 µM
OVCAR-4 ovarian
  GI50: 61.8 µM
  TGI: > 100 µM
PC-3 prostate
  GI50: > 100 µM
  TGI: > 100 µM
SK-OV-3 ovarian
  TGI: > 100 µM
UO-31 renal
  TGI: > 100 µM

## COc1cc(Nc2nc3cc(C(F)(F)F)ccc3n3cccc23)cc(OC)c1OC
CCRF-CEM leukemia
  TGI: > 100 µM
DU-145 prostate
  TGI: > 100 µM
HCT-15 colon
  TGI: > 100 µM
MALME-3M melanoma
  TGI: > 100 µM
MCF7 breast
  TGI: > 100 µM
MOLT-4 leukemia
  TGI: > 100 µM
NCI-H522 lung
  TGI: > 100 µM
PC-3 prostate
  TGI: > 100 µM
SF-539 CNS
  TGI: > 100 µM
SK-OV-3 ovarian
  TGI: > 100 µM
SNB-75 CNS
  TGI: > 100 µM
UO-31 renal
  TGI: > 100 µM

## CCOC(=O)c1c[nH]c2ccc3c(c2c1=O)S(=O)(=O)CC3 (tested in a mixture with another compound)
CCRF-CEM leukemia
  TGI: > 100 µM
HCT-15 colon
  TGI: > 100 µM
LOX IMVI melanoma
  TGI: > 100 µM
MALME-3M melanoma
  TGI: > 100 µM
MCF7 breast
  TGI: > 100 µM
MOLT-4 leukemia
  TGI: > 100 µM
NCI-H522 lung
  TGI: > 100 µM
OVCAR-4 ovarian
  TGI: > 100 µM
SF-539 CNS
  TGI: > 100 µM
SK-OV-3 ovarian
  TGI: > 100 µM
SNB-75 CNS
  TGI: > 100 µM
UO-31 renal
  TGI: > 100 µM

## O=C(c1ccco1)N(C(=O)N1CCN(c2ccccc2)CC1)S(=O)(=O)c1ccccc1
CCRF-CEM leukemia
  TGI: 87.6 µM
DU-145 prostate
  TGI: > 100 µM
HCT-15 colon
  TGI: > 100 µM
MALME-3M melanoma
  TGI: 99.8 µM
MCF7 breast
  TGI: 84 µM
MOLT-4 leukemia
  TGI: 49.1 µM
NCI-H522 lung
  TGI: 41.2 µM
OVCAR-4 ovarian
  TGI: > 100 µM
PC-3 prostate
  TGI: > 100 µM
SF-539 CNS
  TGI: 41.1 µM
SK-OV-3 ovarian
  TGI: > 100 µM
SNB-75 CNS
  TGI: 62.9 µM
UO-31 renal
  TGI: 53.6 µM

## C1CSCCSCCCSCCSCCCSCCSCCCSCCSC1
CCRF-CEM leukemia
  TGI: > 100 µM
DU-145 prostate
  TGI: > 100 µM
HCT-15 colon
  TGI: > 100 µM
LOX IMVI melanoma
  TGI: > 100 µM
MALME-3M melanoma
  TGI: > 100 µM
MCF7 breast
  TGI: > 100 µM
MOLT-4 leukemia
  TGI: > 100 µM
NCI-H522 lung
  TGI: > 100 µM
OVCAR-4 ovarian
  TGI: > 100 µM
PC-3 prostate
  TGI: > 100 µM
SF-539 CNS
  TGI: > 100 µM
SK-OV-3 ovarian
  TGI: > 100 µM
UO-31 renal
  TGI: > 100 µM

## C=CCC1(C)CCCN(Cc2ccccc2)C1=O (configuration not stated)
CCRF-CEM leukemia
  TGI: > 10 µM
DU-145 prostate
  TGI: > 10 µM
HCT-15 colon
  TGI: > 10 µM
LOX IMVI melanoma
  TGI: > 10 µM
MALME-3M melanoma
  TGI: > 10 µM
MCF7 breast
  TGI: > 10 µM
MOLT-4 leukemia
  TGI: > 10 µM
NCI-H522 lung
  TGI: > 10 µM
OVCAR-4 ovarian
  TGI: > 10 µM
PC-3 prostate
  TGI: > 10 µM
SF-539 CNS
  TGI: > 10 µM
SK-OV-3 ovarian
  TGI: > 10 µM
UO-31 renal
  TGI: > 10 µM
